Reference: article PMC5744864, “Indole and Benzimidazole Bichalcophenes: Synthesis, DNA Binding and Antiparasitic Activity” (European Journal of Medicinal Chemistry, 2018)
Structures can show the parent of a compound that is named as a salt. Where two headings read alike, the source gives them in different places.

Key:
[1] = system: T. b. rhodesiense (STIB900) infected mice; assay: STIB900 acute mouse model for T. b. r. infections; format: in vivo; conditions: 4 × 5 mg/kg i.p.; for In vivo (cures), cured/infected mice: T. b. rhodesiense (STIB900) infected mice; for In vivo cure of infected mice (in words): T. b. rhodesiense infected mice
Method: The excellent in vitro activity and selectivity of the indole bichalcophenes diamidines (4a-d) encouraged us to test them in vivo in the rigorous T. b. r. STIB900 mouse model (Table 1) for the acute hemolymphatic stage of the African trypanosomiasis. The dosage applied was low with a daily intraperitoneal (i.p.) dose of 5 mg/kg compound for four consecutive days.
(§1) The in vitro viability assays were with the T. b. r. strain STIB 900 and the chloroquine resistant P. f. strain K1. The efficacy studies were with the STIB900 acute mouse model for T. b. r. infections. Dosage was 4 × 5 mg/kg i.p. performed as previously described in detail. Cytotoxicity was evaluated in L6 rat myoblast cells as previously reported in detail.

[2] = system: P. f. (Plasmodium falciparum) strain K1; assay: In vitro viability assay, chloroquine resistant P. f. strain K1; format: cell-based; conditions: for IC50: Plasmodium falciparum; for SI/P.f, Selectivity Index IC50 (L6)/IC50 (P.f.): ratio L6 versus P. f. K1
Method: as §1

[3] = system: T. b. r. (Trypanosoma brucei rhodesiense) STIB900; assay: In vitro viability assay, T. b. r. strain STIB900; format: cell-based; conditions: for IC50: Trypanosoma brucei, read-out: T. b. r. IC50; for SI/T. b. r., Selectivity Index IC50 (L6)/IC50 (T b.r.): ratio L6 versus T. b. r. STIB900
Method: as §1

[4] = Cytotoxicity in L6 rat myoblast cells; format: cell-based; conditions: cultured L6 rat myoblast cells; read-out: Cytotox. IC50 (L6)
Method: as §1

poly(dA-dT)n = assay: Thermal melting (ΔTm) of poly(dA-dT) DNA; format: binding; conditions: ratio 0.3 mol compound per mole of DNA; CAC 10 buffer pH 7.0
Method: Thermal melting experiments were performed with a Cary 300 spectrophotometer. Cuvettes were mounted in a thermal block where the solution temperatures were mesaured with a thermistor in the reference cuvette. Temperatures were maintained under computer control and increased at 0.5 °C/min. The experiments were performed in 1 cm path length quartz cuvettes in CAC 10 buffer (cacodylic acid 10 mM, EDTA 1 mM, NaCl 100 mM with NaOH added to give pH = 7.0). Poly (dA-dT) DNA concentrations were determined by measuring its absorbance at 260 nm. A ratio of 0.3 mol compound per mole of DNA was used for the complex and DNA alone was used as control. ΔTm values were determined from the peak of first derivative curves (dA/dT).

Poly(dA).Poly(dT) = assay: Circular dichroism titration with Poly(dA).Poly(dT); format: binding; conditions: 20 μM Poly(dA).Poly(dT), 10 mM MES, 100 mM NaCl, 1 mM EDTA, 25 °C
Method: Fig. 2 Circular dichroism spectra of the titration of representative compounds, (4a, 4d, 8a, 8b, 8c) with a 20 μM Poly(dA).Poly(dT) sequence in the buffer (10 mM MES, 100 mM NaCl, 1 mM EDTA, at pH, 7.4) at 25 °C.
CD spectra were collected employing a Jasco J-810 spectrometer at 25 °C using different ratios of compound to DNA at 25 °C in MES 10 buffer (10 mM MES, 100 mM NaCl, I mM EDTA).First, a DNA solution in a 1-cm quartz cuvette was scanned over the desired wavelength range. Tested compounds at increasing ratios, were titrated into the same cuvette and the complexes rescanned under the same conditions.

[5] = system: T. b. rhodesiense (STIB900) infected mice; design: method as in PMID 23959303; conditions: 5 mg/kg i.p. daily for four consecutive days; cited from earlier work
[6] = strain STIB900, average of duplicate determinations

Row | Structure (SMILES) | melting point [°C] | SI/T. b. r., Selectivity Index IC50 (L6)/IC50 (T b.r.) [3] | IC50 [4] [µM] | ΔTm, thermal melting increase of poly(dA-dT)n (poly(dA-dT)n) | Induced CD signal on binding (minor groove binding) (Poly(dA).Poly(dT)) | further results
1 | N=C(N)c1ccc2nc(-c3ccc(-c4ccc(C(=N)N)o4)o3)[nH]c2c1 (as salt: hydrochloride) [Compound 8a, 2-(5′-Amidino-2,2′-bifuran-5-yl)-1H-benzimidazole-5(6)-amidine hydrochloride salt] | > 300 | – | – | – | – | –
2 | N=C(N)c1ccc2cc(-c3ccc(-c4ccc(C(=N)N)s4)s3)[nH]c2c1 (as salt: hydrochloride) [Compound 4d, 2-(5′-Amidino-2,2′-bithiophen-5-yl)-1H-indole-6-amidine hydrochloride salt] | > 300 | – | – | – | – | –
3 | N=C(N)c1ccc2nc(-c3ccc(-c4ccc(C(=N)N)s4)o3)[nH]c2c1 (as salt: hydrochloride) [Compound 8b, 2-(5-(5-Amidinothiophen-2-yl)furan-2-yl)-1H-benzimidazole-5(6)-amidine hydrochloride salt] | > 300 | – | – | – | – | –
4 | N=C(N)c1ccc2cc(-c3ccc(-c4ccc(C(=N)N)o4)s3)[nH]c2c1 [Compound 4c, 2-(5-(5-Amidinofuran-2-yl)thiophen-2-yl)-1H-indole-6-amidine hydrochloride salt] | – | 4400 | 17.6 | 28 ^oC | – | Sterile cures in mice infected with T. b. r. ([1]; STIB900 mouse model): 100%; In vivo (cures), cured/infected mice [1]: 4/4; In vivo cure of infected mice (in words) [1]: curing all T. b. r. infected mice; IC50 ([2]; K1, read-out: P.f. IC50): 6.8 nM; SI/P.f, Selectivity Index IC50 (L6)/IC50 (P.f.) [2]: 2588; IC50 [3]: 4 nM
5 | N=C(N)c1ccc2nc(-c3ccc(-c4ccc(C(=N)N)o4)o3)[nH]c2c1 [Compound 8a, 2-(5′-Amidino-2,2′-bifuran-5-yl)-1H-benzimidazole-5(6)-amidine hydrochloride salt] | – | 409 | 41.8 | 29 ^oC | very strong induced CD signals | IC50 ([2]; chloroquine resistant strain K1, average of duplicate determinations, read-out: P.f. IC50): 91.9 nM; SI/P.f, Selectivity Index IC50 (L6)/IC50 (P.f.) [2]: 454; IC50 [3, 6]: 102 nM
6 | N=C(N)c1ccc2cc(-c3ccc(-c4ccc(C(=N)N)s4)s3)[nH]c2c1 [Compound 4d, 2-(5′-Amidino-2,2′-bithiophen-5-yl)-1H-indole-6-amidine hydrochloride salt] | – | 5800 | 11.6 | >30 ^oC | very strong induced CD signals | In vivo (cures), cured/infected mice [1]: 0/4; IC50 ([2]; K1, read-out: P.f. IC50): 6.8 nM; SI/P.f, Selectivity Index IC50 (L6)/IC50 (P.f.) [2]: 1705; IC50 [3]: 2 nM
7 | N#Cc1ccc2nc(-c3ccc(-c4ccc(C#N)s4)s3)[nH]c2c1 [Compound 7c, 2-(5′-Cyano-2,2′-bithiophen-5-yl)-1H-benzimidazole-5(6)-carbonitrile] | > 300 | – | – | – | – | In vivo cure of infected mice (in words) [1]: cured all mice
8 | N=C(N)c1ccc2nc(-c3ccc(-c4ccc(C(=N)N)s4)s3)[nH]c2c1 (as salt: hydrochloride) [Compound 8c, 2-(5′-Amidino-2,2′-bithiophen-5-yl)-1H-benzimidazole-5(6)-amidine hydrochloride salt] | > 300 | – | – | – | – | –
9 | N=C(N)c1ccc2nc(-c3ccc(-c4ccc(C(=N)N)s4)o3)[nH]c2c1 [Compound 8b, 2-(5-(5-Amidinothiophen-2-yl)furan-2-yl)-1H-benzimidazole-5(6)-amidine hydrochloride salt] | – | 234 | 15 | 27 ^oC | very strong induced CD signals | IC50 [3, 6]: 64 nM
10 | N=C(N)c1ccc(OCCCCCOc2ccc(C(=N)N)cc2)cc1 [pentamidine, Pentamidine] | – | – | – | – | – | In vivo (cures), cured/infected mice [5]: 1/4
11 | N=C(N)c1ccc2cc(-c3ccc(-c4ccc(C(=N)N)s4)o3)[nH]c2c1 [Compound 4b, 2-(5-(5-Amidinothiophen-2-yl)furan-2-yl)-1H-indole-6-amidine hydrochloride salt] | – | 1046 | 15.7 | >30 ^oC | – | In vivo (cures), cured/infected mice [1]: 0/4; IC50 ([2]; K1, read-out: P.f. IC50): 7.3 nM; SI/P.f, Selectivity Index IC50 (L6)/IC50 (P.f.) [2]: 2150; IC50 [3]: 15 nM
12 | N=C(N)c1ccc2cc(-c3ccc(-c4ccc(C(=N)N)s4)o3)[nH]c2c1 (as salt: hydrochloride) [Compound 4b, 2-(5-(5-Amidinothiophen-2-yl)furan-2-yl)-1H-indole-6-amidine hydrochloride salt] | > 300 | – | – | – | – | –
13 | N=C(N)c1ccc2nc(-c3ccc(-c4ccc(C(=N)N)s4)s3)[nH]c2c1 [Compound 8c, 2-(5′-Amidino-2,2′-bithiophen-5-yl)-1H-benzimidazole-5(6)-amidine hydrochloride salt] | – | 1048 | 26.2 | >30 ^oC | very strong induced CD signals | IC50 [3, 6]: 25 nM
14 | N=C(N)c1ccc2cc(-c3ccc(-c4ccc(C(=N)N)o4)o3)[nH]c2c1 (as salt: hydrochloride) [Compound 4a, 2-(5′-Amidino-2,2′-bifuran-5-yl)-1H-indole-6-amidine hydrochloride salt] | > 300 | – | – | – | – | –
15 | N=C(N)c1ccc2cc(-c3ccc(-c4ccc(C(=N)N)o4)s3)[nH]c2c1 (as salt: hydrochloride) [Compound 4c, 2-(5-(5-Amidinofuran-2-yl)thiophen-2-yl)-1H-indole-6-amidine hydrochloride salt] | > 300 | – | – | – | – | –
16 | N=C(N)c1ccc2cc(-c3ccc(-c4ccc(C(=N)N)o4)o3)[nH]c2c1 [Compound 4a, 2-(5′-Amidino-2,2′-bifuran-5-yl)-1H-indole-6-amidine hydrochloride salt] | – | 1100 | 16.5 | 28 ^oC | very strong induced CD signals | In vivo (cures), cured/infected mice [1]: 0/4; IC50 ([2]; K1, read-out: P.f. IC50): 2.9 nM; IC50 [3]: 15 nM
